Measurements reported in patent US7462598B2, “Antimicrobial theta defensins, analogs thereof, and methods of use” (priority 2002, dated 2008).
Bridge positions count the residues as written; N and C are the ends. Peptide text beside a SMILES is read from it.

Tests used:
S. aureus 502a = experiment: Cell-suspension microbicidal assay (MMC); assay type: cell-based, Staphylococcus aureus; details: for MMC, S. aureus: lowest concentration that reduced cell viability by 99.9%, 10 mM PIPES, 5 mM glucose, pH 7.4, 2 h 37° C.
Protocol: (§1) To test microbicidal activities, the activities of each peptide against S. aureus 502a, E. coli ML35, and C. albicans 16820 were assessed essentially as described in Example I with modifications to allow for simultaneous analysis of all twenty peptides. Briefly, two-fold serial dilutions of each peptide (in 0.01% acetic acid 0.062-8.0 μg/ml final concentrations) were mixed with 10 mM PIPES, pH 7.4, containing 5 mM glucose in sterile polystyrene 96-well plates (Corning, N.Y.). Aliquots of log-phase bacteria or yeast were added to a 2×10^6 CFU/ml final density as determined by A620. After 2 h incubation at 37° C., 15 μl of the incubation mixture was removed and serially diluted ten-fold from 1:10 to 1:10^6 in trypticase soy broth (bacteria) or Sabaraud dextrose broth (C. albicans). The diluted cell suspensions were grown 24-48 h at 37° C. until cell pellets were visible. Microbicidal activity was determined as absence of growth and was correlated to CFU/ml in control experiments where activity was determined in parallel by colony counting (see Example I). Absence of growth at the 1:10^3 dilution is equivalent to a 3-log reduction in microbial viability.
(§2) The microbicidal activities of each peptide against E. coli ML35, S. aureus 502a, and C. albicans 16820 were determined with cell-suspension microbicidal assays in 96-well plates (see Example II). Briefly, log-phase cells (2×10^6 CFU/ml final) were incubated with increasing concentrations of peptides (0-8 μg/ml final) in 50 μl of 10 mM PIPES, 5 mM glucose, pH 7.4, for 2 h at 37° C. Incubation mixtures were diluted 1:10 to 1:10^6 with trypticase-soy broth (bacteria) or Sabaraud dextrose broth (fungi) and incubated at 37° C. for 24-48 h until cell pellets were visible. Microbicidal activities (confirmed in control experiments as described in Example II) were determined as the absence of a cell pellet in the various dilutions. Peptide concentrations that caused ≧99.9% killing (absence of a cell pellet at 1:10^3 dilution) were taken as the minimum microbicidal concentrations (MMC).

[1] = system: S. aureus 502a, E. coli ML35, and C. albicans 16820; experiment: Cell-suspension microbicidal assay, statements across the test organisms (lowest MMC, overall ranges); assay type: cell-based; details: peptide concentration that kill 99.9% of either S. aureus, E. coli, or C. albicans; lowest MMC value
Protocol: as §1, §2
A selectivity index (SI=H/M) was calculated as a ratio of a peptide concentration (μg/ml) that causes 3% hemolysis (H) obtained from a dose-dependent hemolysis plot over 0.3 to 3 μg/ml of each peptide in PBS and the lowest MMC value (M) for any of the three test microorganisms (see Example II; Table 2).

C. albicans 16820 = experiment: Cell-suspension microbicidal assay (MMC); assay type: cell-based, Candida albicans; details: for MMC, C. albicans: lowest concentration that reduced cell viability by 99.9%, 10 mM PIPES, 5 mM glucose, pH 7.4, 2 h 37° C.
Protocol: as §1, §2

E. coli ML35 [2] = experiment: Cell-suspension microbicidal assay (MMC); assay type: cell-based, Escherichia coli; details: for MMC, E. coli: lowest concentration that reduced cell viability by 99.9%, 10 mM PIPES, 5 mM glucose, pH 7.4, 2 h 37° C.
Protocol: as §1, §2

E. coli ML35 [3] = experiment: Membrane permeabilization assay (ONPG hydrolysis); assay type: cell-based, Escherichia coli; details: rates at 1 μg/ml concentration of each peptide
Protocol: For the membrane permeabilization assay, the permeabilization of bacterial cytoplasmic membranes was determined by measuring hydrolysis of o-nitrophenyl-β-D-galactcpyranoside (ONPG) in E. coli ML35 (Sitaram et al., FEBS Lett. 303:265-268 (1992); Lehrer et al.,. J. Immunol. Methods 108:153-158 (1988)). Peptides dissolved in 5 μl of 0.01% acetic acid were two-fold serially diluted with 10 mM PIPES, pH 7.4, containing 3 mM ONPG, to final peptide concentrations of 0-8.0 μg/ml. Log-phase bacteria, prepared in PIPES buffer as described for the microbicidal assay (see Example I), were added to 1×10^6 CFU/ml final density in a final volume of 90 μl. ONPG hydrolysis was measured at 405 nm for 60 min using a SpectraMAX 190 plate reader and SOFTmaxPRO 3.1 (Molecular Devices Corp., CA). […]

[4] = carboxamide versus C-terminal acid of the same acyclic θ-defensin

SMILES	fold lower staphylocidal potency than native PG-1 (S. aureus 502a; from MMC, Table 2)	MMC, S. aureus (S. aureus 502a)	M [1]	fold lower candidacidal potency than native PG-1 (C. albicans 16820; from MMC, Table 2)	MMC, C. albicans (C. albicans 16820)	MMC, E. coli (E. coli ML35 [2])	ONPG hydrolysis (E. coli ML35 [3])	fold lower staphylocidal activity than 3cys 3:1 PG-1-OH (S. aureus 502a; from MMC, Table 2)	fold lower candidacidal activity than 3cys 3:1 PG-1-OH (C. albicans 16820; from MMC, Table 2)	fold reduction of staphylocidal potency relative to the peptide acid analog (S. aureus 502a; [4])	fold higher potency against C. albicans than the peptide acid analog (C. albicans 16820; [4])	fold higher potency against E. coli than the peptide acid analog (E. coli ML35 [2]; [4])
CC(C)[C@@H]1NC(=O)[C@@H]2CSSC[C@H](NC(=O)[C@H](CCCNC(=N)N)NC(=O)[C@@H](NC(=O)CNC(=O)CNC(=O)[C@@H](N)CCCNC(=N)N)CSSC[C@@H](C(=O)N[C@@H](CCCNC(=N)N)C(N)=O)NC1=O)C(=O)N[C@@H](Cc1ccc(O)cc1)C(=O)N[C@H]1CSSC[C@H](NC(=O)[C@H](Cc3ccccc3)NC(=O)[C@H](CCCNC(=N)N)NC(=O)[C@H](CCCNC(=N)N)NC(=O)[C@H](CCCNC(=N)N)NC1=O)C(=O)N[C@@H](C(C)C)C(=O)N2 [3cys 3:1 PG-1-NH] (H-RGGCRCYCRRRFCVCVCR-NH2; disulfide 4-17, 6-15, 8-13; N-terminus assumed)	5 fold	2.0 µg/mL	1.5 µg/mL	5 fold	4.0 µg/mL	1.5 µg/mL	12.3 (A405/sec) · 10^−5	–	–	–	–	–
CC(C)[C@@H]1NC(=O)[C@@H]2CSSC[C@H](NC(=O)[C@H](CCCNC(=N)N)NC(=O)[C@@H](NC(=O)CNC(=O)CN)CSSC[C@@H](C(=O)N[C@@H](CCCNC(=N)N)C(=O)N[C@@H](CCCNC(=N)N)C(=O)O)NC1=O)C(=O)N[C@@H](Cc1ccc(O)cc1)C(=O)N[C@H]1CSSC[C@H](NC(=O)[C@H](Cc3ccccc3)NC(=O)[C@H](CCCNC(=N)N)NC(=O)[C@H](CCCNC(=N)N)NC(=O)[C@H](CCCNC(=N)N)NC1=O)C(=O)N[C@@H](C(C)C)C(=O)N2 [3cys 2:2 PG-1-OH] (H-GGCRCYCRRRFCVCVCRR-OH; disulfide 3-16, 5-14, 7-12; N-terminus assumed)	–	2.0 µg/mL	1 µg/mL	–	4.0 µg/mL	1.0 µg/mL	13.0 (A405/sec) · 10^−5	2-4 fold	2-4 fold	–	–	–
CC(C)C[C@@H]1NC(=O)[C@@H]2CSSC[C@H](NC(=O)[C@H](CCCNC(=N)N)NC(=O)[C@@H](NC(=O)[C@@H](NC(=O)CN)C(C)C)CSSC[C@@H](C(=O)N[C@@H](CCCNC(=N)N)C(=O)N[C@@H](CCCNC(=N)N)C(N)=O)NC1=O)C(=O)N[C@@H](CC(C)C)C(=O)N[C@H]1CSSC[C@H](NC(=O)[C@H](C(C)C)NC(=O)CNC(=O)[C@H](CCCNC(=N)N)NC(=O)[C@H](CCCNC(=N)N)NC1=O)C(=O)N[C@@H](CCCNC(=N)N)C(=O)N2 [aRTD-3-NH] (H-GVCRCLCRRGVCRCLCRR-NH2; disulfide 3-16, 5-14, 7-12; N-terminus assumed)	–	4.5 µg/mL	0.75 µg/mL	–	0.8 µg/mL	1.0 µg/mL	9.7 (A405/sec) · 10^−5	–	–	3 fold	2- to 4 fold	2- to 4 fold
CC(C)[C@@H]1NC(=O)[C@@H]2CSSC[C@H](NC(=O)[C@H](CCCNC(=N)N)NC(=O)[C@@H](NC(=O)CNC(=O)CNC(=O)[C@@H](N)CCCNC(=N)N)CSSC[C@@H](C(=O)N[C@@H](CCCNC(=N)N)C(=O)O)NC1=O)C(=O)N[C@@H](Cc1ccc(O)cc1)C(=O)N[C@H]1CSSC[C@H](NC(=O)[C@H](Cc3ccccc3)NC(=O)[C@H](CCCNC(=N)N)NC(=O)[C@H](CCCNC(=N)N)NC(=O)[C@H](CCCNC(=N)N)NC1=O)C(=O)N[C@@H](C(C)C)C(=O)N2 [3cys 3:1 PG-1-OH] (H-RGGCRCYCRRRFCVCVCR-OH; disulfide 4-17, 6-15, 8-13; N-terminus assumed)	–	0.5 µg/mL	0.5 µg/mL	–	1.5 µg/mL	1.5 µg/mL	11.0 (A405/sec) · 10^−5	–	–	–	–	–
